Positions of bridges follow the written chain, without caps; N, C: chain ends. Non-standard residues stand in square brackets, D forms with d. Residues, ends and D or L forms follow the SMILES beside them. Chains are numbered I, II in the order given. No end group written: not given here. Cha = N[C@@H](CC1CCCCC1)C(=O)O; βAla = NCCC(=O)O

Data set [1] is described as follows: Pharmacokinetic experiment: functional peptide in mouse serum after i.p. injection. The data set is classed as in vivo. To be noted: 62.5 mg/kg, 1 to 24 hours. The method, then: Female nu/nu-META/Bom mice were injected intraperitoneally (i.p) with a solution of the peptide AE 120 (6.25 mg/ml in 0.5% (w/v) poloxamer 237 in PBS, pH 7.3) at a dose of 62.5 mg/kg mouse weight. At different time points between 1 hour and 24 hours, blood was collected from anaesthetised mice by cardiac puncture. The blood samples were allowed to clot for 30 min at room temperature, followed by centrifugation at 1,000×g for 10 min at 20° C., and the sera were stored frozen at −80° C. prior to assay. The presence of functional peptide antagonists in serum was determined by diluting the serum samples 1:10 with binding buffer (0.1% bovine serum albumin and 5 mM Hepes in Eagles MEM supplemented with Glutamax-1, pH 7.4) and analysing the samples in cell binding experiments with MDA-MB-231 BAG cells and ^125I-labelled human ATF as described in Example 7. As an internal standard, AE120 was added exogenously to pooled mouse sera at final concentrations of 12.5 nM, 25 nM, 125 nM and 250 nM.

Data set [2] in a line: Peptide stability in mouse serum ex vivo, read out by ATF cell-binding inhibition. In kind it is in vitro ADME. Conditions: 10% mouse serum, up to 24 hours, 37° C. Here is the method: Mouse blood was collected from anaesthetised mice (femal nu/nu-META/Bom (Bomholtgaard, Ry, Denmark)) by cardiac puncture. The blood samples were allowed to clot for 30 min at room temperature, followed by centrifugation at 1,000×g for 10 min at 20° C., and the sera were sterile filtered using 0.8 μm/0.2 μm filters (Acrodisc PF, Gelman Science, MI) and then stored at 4° C. until use. The peptide antagonists were added to fresh pooled mouse serum at the indicated concentrations (FIG. 5) and incubated at 37° C. for different periods, between 0 hours and 24 hours. Serum incubated samples were diluted 1:10 in binding buffer (0.1% bovine serum albumin and 5 mM Hepes in Eagles MEM supplemented with Glutamax-1, pH 7.4). Subsequently, cell binding experiments in the presence of ^125I-labelled human ATF were performed in duplicates as above, by preincubating MDA-MB-231 BAG cells at 37° C. 15 min with the 1:10 diluted serum incubated samples ± peptides. In parallel, peptides diluted in binding buffer alone were included as controls.
AE118 and AE78 (for comparison) were incubated at 37° C. in the presence of 10% mouse serum for different time intervals, up to 24 hours. The incubation mixtures were tested for their ability to inhibit binding of radio-labelled human uPA amino terminal fragment (ATF) to monolayer cultures of human MDA-MB-231 breast cancer cells, as described in Example 7.

For data set [3], the target named is T1, neuramimidase-treated human suPAR (soluble recombinant uPAR) (Homo sapiens, UniProt Q03405).
T1 construct: A soluble recombinant variant of human uPAR (suPAR) was expressed in Chinese hamster ovary (dhfr) cells; made in house; host or cells: Chinese hamster ovary (dhfr) cells
Briefly: Biacore Binding Assay (surface plasmon resonance), ligand binding to immobilised suPAR. Conditions: for koff: Biacore, 5° C., immobilised suPAR, read-out: kdiss (dissociation rate constant, off-rate). The method, then:
Association rate constants (kass), dissociation rate constants (kdiss) and equilibrium binding constants (kd) for various synthetic peptides and receptor binding derivatives of human uPA were determined by surface plasmon resonance (R. Karlsson et al. (1991) J. Immunol. Meths. 145:229–240) using a BIAcore2000™ instrument (Pharmacia Biosensor, Uppsala, Sweden). Due to the low isoelectric point of uPAR (pI≈4.5) terminal sialic acid residues were removed from its N-linked carbohydrates to facilitate chemical immobilisation on the sensor chip. This was accomplished by incubating purified suPAR (1 mg/ml in 50 mM phosphate, 150 mM NaCl, pH 7.4) with 5 μg/ml neuramimidase for 4 hours at 37° C. […] Coupling of the neuramimidase-treated suPAR to a BIAcore sensor chip was achieved by injection of 20 μg/ml suPAR in 10 mM sodium acetate pH 5.0 for 6 minutes at a flow rate of […] per minute using a carboxymethylated dextran matrix (CM5 sensor chip) preactivated with N-hydroxysuccinimide/N-ethyl-N′-[3-([…])propyl]carbodiimide according to the manufacturer's recommendations. Approximately 1,500–2,000 resonance units (RU) were immobilised by this procedure (corresponding to 1–2 ng suPAR/mrn^2).
Sensorgrams (RU versus time) were recorded (FIG. 2) at a flow rate of 10 μl per min at 5° C. using several different concentrations of the ligand (synthetic peptides, uPA, the amino-terminal fragment (ATF) of uPA, or the growth factor domain (GFD) of uPA) in the range of 10 to 1000 nM in running buffer (10 mM HEPES, 150 mM NaCl, 3 mM EDTA (pH 7.4) including 0.005% surfactant P-20). Stock solutions of peptides from combinatorial chemistry were made in DMSO (10 mg peptide/ml DMSO). The sensor chip was regenerated at the end of each run by injection of 0.1 M acetic acid, 0.5 M NaCl. Data obtained from parallel mock coupled flow cells (subjected to the coupling procedure in the presence of buffer only) served as blank sensorgrams for subtraction of changes in bulk refractive index. The sensorgrams obtained were analysed by non-linear least squares fitting using BIAevaluation 2.0 software (Pharmacia Biosensor, Uppsala, Sweden) assuming single-site association and dissociation models.
Purified human suPAR (1 mg/ml in 50 mM phosphate, 150 mM NaCl, pH 7.4) was incubated with 5 μg/ml neuramimidase for 4 hours at 37° C.
In order to couple the neuramimidase-treated suPAR to a BIAcore sensor chip, 20 μg/ml suPAR in 10 mM sodium acetate (pH 5.0) was injected for 6 minutes at a flow rate of 5 μl per minute using a carboxymethylated dextran matrix (CM5 sensor chip), thereby immobilising approximately 1,500–2,000 resonance units (RU), which correspond to 1–2 ng suPAR/mm^2. The CM5 sensor chip was preactivated with N-hydroxysuccinimide/N-ethyl-N′-[3-([…])propyl]carbodiimide in accordance with the manufacturer's recommendations.
Surface plasmon resonance sensorgrams (RU versus time) were recorded at a flow rate of 10 μl per min at 5° C. using several different concentrations of the ligand (i.e. the relevant peptide or GFD) in the range from 10 to 1000 nM in running buffer (10 mM HEPES, 150 mM NaCl, 3 mM EDTA (pH 7.4) including 0.005% surfactant P-20).
The sensor chip was regenerated at the end of each run by injection of 0.1 M acetic acid, 0.5 M NaCl.
Data from parallel mock coupled flow cells (subjected to the coupling procedure in the presence of buffer only) served as blank sensorgrams for subtraction of changes in bulk refractive index.
The obtained sensorgrams were analysed by non-linear least squares fitting using BIAevaluation 2.0 software (Pharmacia Biosensor, Uppsala, Sweden) assuming single-site ssociation and dissociation models.

Data set [4] is described as follows: Mouse tolerance of peptide dosing. In kind it is in vivo. To be noted: 4 i.p. injections 8 hours apart, 1.38 mg each, total 5.52 mg per mouse. The method, then:
Mice were given a series of 4 intraperitoneal injections, spaced 8 hours apart, of peptide AE120 dispersed in a poloxamer formulation containing 2.9% DMSO. Each injection delivered 1.38 mg of peptide in 200 μL of formula, so that each mouse received a total of 5.52 mg over the 24-hour study period.

Another data set concerns the target uPAR-ATF interaction (Homo sapiens, UniProt Q03405). Conditions: read-out: apparent inhibition constant; cited from earlier work.

uPAR-ATF interaction, sequence (Q03405 23-305 limits assumed): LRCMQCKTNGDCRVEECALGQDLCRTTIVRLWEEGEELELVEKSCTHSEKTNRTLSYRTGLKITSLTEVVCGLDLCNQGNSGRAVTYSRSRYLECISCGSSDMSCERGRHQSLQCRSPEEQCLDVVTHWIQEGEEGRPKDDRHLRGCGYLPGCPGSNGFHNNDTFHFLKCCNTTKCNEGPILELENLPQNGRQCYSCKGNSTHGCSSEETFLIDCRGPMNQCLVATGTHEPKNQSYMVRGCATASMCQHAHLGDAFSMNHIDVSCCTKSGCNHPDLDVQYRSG

Consider `CC(C)C[C@H](NC(=O)[C@H](Cc1ccc(O)cc1)NC(=O)[C@@H](CCCNC(=N)N)NC(=O)[C@@H](CO)NC(=O)[C@H](Cc1ccccc1)NC(=O)[C@H](CC1CCCCC1)NC(=O)[C@@H](N)CC(=O)O)C(=O)N[C@@H](Cc1c[nH]c2ccccc12)C(=O)N[C@@H](CO)C(=O)NCC(=O)NCCCC[C@H](NC(=O)CCNC(=O)CNC(=O)[C@H](CO)NC(=O)[C@H](Cc1c[nH]c2ccccc12)NC(=O)[C@H](CC(C)C)NC(=O)[C@H](Cc1ccc(O)cc1)NC(=O)[C@@H](CCCNC(=N)N)NC(=O)[C@@H](CO)NC(=O)[C@H](Cc1ccccc1)NC(=O)[C@H](CC1CCCCC1)NC(=O)[C@@H](N)CC(=O)O)C(=O)O` [AE120, α-[DChaFsrYLWSGβA]-ε-[DChaFsrYLWSG]-K] (I: H-D[Cha]F[dS][dR]YLWSG[βAla]K-OH / II: H-D[Cha]F[dS][dR]YLWSG; amide I:12-II:C), for which the “activity of peptide antagonist in mouse serum after dosing” value in data set [1] is recorded as “retained its activity in mouse serum for several hours”. The “ability to inhibit ATF binding after incubation in mouse serum (stability)” value in data set [2] was “slight reduction”. For the same molecule, the koff in data set [3] was 3e-05 s⁻¹. In addition, in data set [4], the “tolerance: effect on behaviour or well-being” value is recorded as “no visible sign of any effect on the behaviour or well-being of the mice”.
As for “AEPMPHSLNFSQYLWYT [AE78, reference compound]”, the “ability to inhibit ATF binding after incubation in mouse serum (stability)” value in data set [2] is listed as “lost the majority of its inhibitory activity”. The Ki at uPAR-ATF interaction is 10 nM. Moreover, in data set [3], the koff is 0.0101 s⁻¹. The Relative kdiss in data set [3] (relative to the Growth Factor Domain of uPA (GFD = 1.0)) is 72.1.

(Values after patent publication US7026282B1, “Peptide antagonists of the human urokinase receptor and method for selecting them” (Cancerforskningsfonden AF 1989 (Fonden Til Fremme AF …, priority 1998, dated 2006).)
